Source: US20220160009A1, “COMPOSITION COMPRISING TRANSFRUCTOSYLATED STEVIOL GLYCOSIDE” (CJ CHEILJEDANG CORPORATION, priority 2019, published 2022)

What was measured:
[1] = Sensory preference evaluation by 15 panels; conditions: diluted to sweetness equivalent to 10% (w/w) or 10 brix of sugar, 9-point scale converted to 5-point scale
Method: Prior to sensory evaluation, four samples of Example 1 (STV, STV-Fru, RA, RA-Fru) were diluted to the sweetness equivalent to 10% (w/w) or 10 brix of sugar, and the sensory evaluation was carried out on the four samples.
The evaluation was proceeded as follow: 15 panels were given the four samples and required to evaluate the sweetness preference and the overall preference of the four samples on a 9-point scale (1=very much dislike, 5=neither dislike nor like, 9=very much like).
Then, the statistical analysis was converted to a 5-point scale to verify the significant difference through paired T tests (reliability level of 95%).

[2] = Sensory descriptive analysis by experts (n=15); conditions: diluted to equivalent sweetness based on 10 brix of sugar
Method: The transfructosylated Stevioside (STV-Fru) and the transfructosylated Rebaudioside A (RA-Fru) prepared in Preparation Example 1 were diluted to the sweetness equivalent to Stevioside (STV) and Rebaudioside A (RA) (sweetness based on 10 brix of sugar), respectively, and then presented to experts (n=15) for descriptive analysis.

[3] = listed as transfructosylated Stevioside
[4] = listed as transfructosylated Rebaudioside A

Structure (SMILES) | Overall Preference [1] | Sweetness Preference [1] | Bitterness Intensity [2] | Feeling of Weight [2] | Off-smell/Off flavor Intensity [2] | Overall Preference [2] | Sweetness Intensity [2] | Sweetness Persistence [2] | Sweetness Preference [2] | also measured
C=C1C[C@@]23CC[C@H]4[C@@](C)(CCC[C@@]4(C)C(=O)O[C@@H]4O[C@H](CO)[C@@H](O)[C@H](O)[C@H]4O)[C@@H]2CC[C@]1(O[C@@H]1O[C@H](CO)[C@@H](O)[C@H](O[C@@H]2O[C@H](CO)[C@@H](O)[C@H](O)[C@H]2O)[C@H]1O[C@@H]1O[C@H](CO)[C@@H](O)[C@H](O)[C@H]1O)C3 [RA, Rebaudioside A, reference compound] | 2.72 | 2.51 | 3.4 | 2.9 | 3.3 | 2.6 | 3.2 | 2.9 | 2.5 | –
C=C1C[C@@]23CC[C@H]4[C@@](C)(CCC[C@@]4(C)C(=O)O[C@@H]4O[C@H](CO[C@]5(CO)O[C@H](CO)[C@@H](O)[C@@H]5O)[C@@H](O)[C@H](O)[C@H]4O)[C@@H]2CC[C@]1(O[C@@H]1O[C@H](CO)[C@@H](O)[C@H](O)[C@H]1O[C@@H]1O[C@H](CO)[C@@H](O)[C@H](O)[C@H]1O)C3 [STV-Fru] | 3.02 | 3.14 | 2.3 | 3.2 | 2.3 | 3.5 | 2.6 | 2.7 | 3.3 | Overall Preference [1, 3]: excellent; Sweetness Preference [1, 3]: excellent; Bitterness Intensity [2, 3]: significantly low; Off-smell/Off flavor Intensity [2, 3]: significantly low; Overall Preference [2, 3]: significantly high; Sweetness Preference [2, 3]: significantly high
C=C1C[C@@]23CC[C@H]4[C@@](C)(CCC[C@@]4(C)C(=O)O[C@@H]4O[C@H](CO)[C@@H](O)[C@H](O)[C@H]4O)[C@@H]2CC[C@]1(O[C@@H]1O[C@H](CO)[C@@H](O)[C@H](O)[C@H]1O[C@@H]1O[C@H](CO)[C@@H](O)[C@H](O)[C@H]1O)C3 [STV, Stevioside, reference compound] | 2.02 | 2.13 | 3.9 | 2.8 | 3.5 | 2.1 | 2.8 | 2.9 | 2.3 | –
C=C1C[C@@]23CC[C@H]4[C@@](C)(CCC[C@@]4(C)C(=O)O[C@@H]4O[C@H](CO[C@]5(CO)O[C@H](CO)[C@@H](O)[C@@H]5O)[C@@H](O)[C@H](O)[C@H]4O)[C@@H]2CC[C@]1(O[C@@H]1O[C@H](CO)[C@@H](O)[C@H](O[C@@H]2O[C@H](CO)[C@@H](O)[C@H](O)[C@H]2O)[C@H]1O[C@@H]1O[C@H](CO)[C@@H](O)[C@H](O)[C@H]1O)C3 [RA-Fru, 13-[(2-β-D-glucopyranosyl-3-O-β-D-glucopyranosyl-β-D-glucopyranosyl)oxy]ent-kaur-16-en-19-oic acid 6-O-β-D-fructofuranose-β-D-glucopyranosyl ester] | 3.73 | 3.42 | 1.8 | 2.7 | 2.4 | 3.5 | 3.1 | 2.6 | 3.4 | Overall Preference [1, 4]: excellent; Sweetness Preference [1, 4]: excellent; Bitterness Intensity [2, 4]: significantly low; Off-smell/Off flavor Intensity [2, 4]: significantly low; Overall Preference [2, 4]: significantly high; Sweetness Preference [2, 4]: significantly high
